pKi: −log10 of the molar value.
These compounds were tested against T1, Promotilin (Homo sapiens, UniProt P12872).
T1 sequence (P12872 whole entry): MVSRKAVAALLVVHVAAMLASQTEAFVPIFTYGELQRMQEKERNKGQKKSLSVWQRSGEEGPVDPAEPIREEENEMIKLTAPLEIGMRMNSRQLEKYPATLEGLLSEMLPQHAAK

| pKi | Compound |
| --- | --- |
| 8.34 | H-FVPIFTYGELARLQ-NH2 [[ala11,leu13]pMOT(1-14)] |
| 8.67 | CC[C@H](C)[C@H](NC(=O)[C@@H]1CCCN1C(=O)[C@@H](NC(=O)[C@@H](N)Cc1ccccc1)C(C)C)C(=O)N[C@@H](Cc1ccccc1)C(=O)N[C@H](C(=O)N[C@@H](Cc1ccc(O)cc1)C(=O)NCC(=O)N[C@@H](CCC(=O)O)C(=O)N[C@@H](CC(C)C)C(=O)N[C@@H](CCC(N)=O)C(=O)N[C@@H](CCCN=C(N)N)C(=O)N[C@@H](CC(C)C)C(=O)N[C@@H](CCC(N)=O)C(=O)N[C@@H](CCC(=O)O)C(=O)N[C@@H](CCCCN)C(N)=O)[C@@H](C)O [[leu13]pMOT(1-16)] |
| 5.05 | H-FVPIF-NH2 [[leu13]pMOT(1-5)] |
| 8.15 | H-FVPIFTYGELQRLA-NH2 [[ala14,leu13]pMOT(1-14)] |
| 7.33 | H-FVPIFAYGELQRLQ-NH2 [[ala6,leu13]pMOT(1-14)] |
| 5.84 | H-FVPIFTAGELQRLQ-NH2 [[ala7,leu13]pMOT(1-14)] |
| 7.44 | H-FVPIFTYAELQRLQ-NH2 [[ala8,leu13]pMOT(1-14)] |
| 8.30 | H-FVPIFTYGEAQRLQ-NH2 [[ala10,leu13]pMOT(1-14)] |
| 9.01 | H-FVPIFTYGELQRLQEKERN-NH2 [[leu13]pMOT(1-19)] |
| 5.16 | H-FVPIFTY-NH2 [[leu13]pMOT(1-7)] |
| 5.39 | H-FVPIFTYGE-NH2 [[leu13]pMOT(1-9)] |
| 6.84 | CC[C@H]1OC(=O)[C@H](C)[C@@H](O[C@H]2C[C@@](C)(OC)[C@@H](O)[C@H](C)O2)[C@H](C)[C@@H](O[C@@H]2O[C@H](C)C[C@H](N(C)C)[C@H]2O)[C@](C)(O)C[C@@H](C)C(=O)[C@H](C)[C@@H](O)[C@H]1C [Erythromycin-B] |
| 8.14 | H-FVPIFTYGELQRAQ-NH2 [[ala13,leu13]pMOT(1-14)] |
| 8.12 | CC[C@H]1OC(=O)[C@H](C)[C@@H](O[C@H]2C[C@@](C)(OC)[C@@H](O)[C@H](C)O2)[C@H](C)[C@@H](O[C@@H]2O[C@H](C)C[C@H](N(C)C)[C@H]2O)C2(C)CC(C)=C(O2)[C@H](C)[C@@H](O)[C@H]1C (some centres undefined) [Erythromycin-B enol ether] |
| 9.00 | H-FVPIFTYGELQRLQEKERNKGQ-OH [[leu13]pMOT(1-22)] |
| 8.20 | H-FVPIFTYGELQALQ-NH2 [[ala12,leu13]pMOT(1-14)] |
| 7.05 | H-FVPIFTYGELQ-NH2 [[leu13]pMOT(1-11)] |
| 8.88 | H-FVAIFTYGELQRLQ-NH2 [[ala3,leu13]pMOT(1-14)] |
| 7.12 | H-FVPIFTYGALQRLQ-NH2 [[ala9,leu13]pMOT(1-14)] |
| 5.59 | H-FVPAFTYGELQRLQ-NH2 [[ala4,leu13]pMOT(1-14)] |
| 8.22 | CC[C@H]1OC(=O)[C@H](C)[C@@H](O[C@H]2C[C@@](C)(OC)[C@@H](O)[C@H](C)O2)[C@H](C)[C@@H](O[C@@H]2O[C@H](C)C[C@H](N(C)CC)[C@H]2O)[C@@]2(C)CC(C)=C(O2)[C@H](C)[C@@H](O)[C@]1(C)O [N-ethyl, N-methyl Erythromycin-A enol ether] |
| 6.62 | CC[C@H]1OC(=O)[C@H](C)[C@@H](O[C@H]2C[C@@](C)(OC)[C@@H](O)[C@H](C)O2)[C@H](C)[C@@H](O[C@@H]2O[C@H](C)C[C@H](N(C)CC)[C@H]2O)[C@](C)(O)C[C@@H](C)C(=O)[C@H](C)[C@@H](O)[C@]1(C)O [N-ethyl, N-Methyl Erythromycin-A] |
| 7.54 | H-FVPIATYGELQRLQ-NH2 [[ala5,leu13]pMOT(1-14)] |

| Compound | pKi |
| --- | --- |
| CC[C@H]1OC(=O)[C@H](C)[C@@H](O[C@H]2C[C@@](C)(OC)[C@@H](O)[C@H](C)O2)[C@H](C)[C@@H](O[C@@H]2O[C@H](C)C[C@H](N(C)C)[C@H]2O)[C@@]2(C)CC(C)=C(O2)[C@H](C)[C@@H](O)[C@]1(C)O [Erythromycin-A enol ether] | 8.08 |
